Measured values taken from patent publication US20070128217A1 (priority 2003, published 2007).

Key:
[1] = system: antibodies in sera from SARS patients (sera 1a, 1b, 2, 6, 37, 62, London, SARS-yellow, SARS-green); assay type: binding, human; set-up: Binding of serum 6 to linear peptides of protein X1 of SARS-CoV Urbani / Binding of serum 37 to linear peptides of protein X1 of SARS-CoV Urbani / Binding of serum 6 to looped/cyclic peptide (PEPSCAN-ELISA) / Binding of serum 37 to looped/cyclic peptide (PEPSCAN-ELISA) / Binding of serum 37 to looped/cyclic peptides of protein X1 of SARS-CoV Urbani / Binding of serum 6 to linear peptides of protein X2 / Binding of serum 37 to linear peptides of protein X2 / Binding of serum 37 to looped/cyclic peptides of protein X2 of SARS-CoV Urbani / Binding of serum 6 to linear peptides of protein M of SARS-CoV Urbani / Binding of serum 37 to linear peptides of protein M of SARS-CoV Urbani / Binding of serum 6 to looped/cyclic peptides of protein M of SARS-CoV Urbani / Binding of serum 37 to looped/cyclic peptides of protein M of SARS-CoV Urbani / Binding of serum 6 to linear peptides of protein X3 of SARS-CoV Urbani / Binding of serum 37 to linear peptides of protein X3 of SARS-CoV Urbani / Binding of serum 37 to looped/cyclic peptides of protein X3 of SARS-CoV Urbani / Binding of serum 6 to linear peptides of protein X4 of SARS-CoV Urbani / Binding of serum 37 to linear peptides of protein X4 of SARS-CoV Urbani / Binding of serum 37 to looped/cyclic peptides of protein X4 of SARS-CoV Urbani / Binding of serum 6 to linear peptides of protein X5 of SARS-CoV Urbani / Binding of serum 37 to linear peptides of protein X5 of SARS-CoV Urbani / Binding of serum 37 to looped/cyclic peptides of protein X5 of SARS-CoV Urbani / Binding of serum 6 to linear peptides of protein N of SARS-CoV Urbani / Binding of serum 37 to linear peptides of protein N of SARS-CoV Urbani / Binding of serum 6 to linear peptide (PEPSCAN-ELISA) / Binding of serum 1a to looped/cyclic peptides of protein N of SARS-CoV Urbani / Binding of serum 1b to looped/cyclic peptides of protein N of SARS-CoV Urbani / Binding of serum 2 to looped/cyclic peptides of protein N of SARS-CoV Urbani / Binding of serum 6 to looped/cyclic peptides of protein N of SARS-CoV Urbani / Binding of serum 37 to looped/cyclic peptides of protein N of SARS-CoV Urbani / Binding of serum 62 to looped/cyclic peptides of protein N of SARS-CoV Urbani / Binding of serum London to looped/cyclic peptides of protein N of SARS-CoV Urbani / Binding of serum SARS-green to looped/cyclic peptides of protein N of SARS-CoV Urbani: unit not given here
[2] = system: control sera (pooled serum of ten healthy LUMC hospital workers; commercial negative donor pooled serum from the Dutch bloodbank); assay type: binding, human; set-up: Binding of Control serum LUMC to linear peptides / Binding of Control serum Blood-bank to linear peptides / Binding of Control serum LUMC to looped peptides / Binding of Control Serum Blood-Bank to Looped peptides / Binding of Control serum LUMC to linear peptides of the protein M of SARS-CoV Urbani / Binding of Control serum Blood-bank to linear peptides of the protein M of SARS-CoV Urbani / Binding of Control serum LUMC to looped peptides of the protein M of SARS-CoV Urbani / Binding of Control Serum Blood-Bank to Looped peptides of the protein M of SARS-CoV Urbani: unit not given here
[3] = system: rabbit serum obtained by immunizing a rabbit with the SARS-CoV strain Frankfurt 1; assay type: binding; set-up: Binding of a rabbit serum to linear peptides / Binding of a rabbit serum to looped peptides / Rabbit serum linear peptides / Rabbit serum looped peptides / Binding of a rabbit serum to linear peptides of protein N of SARS-CoV Urbani (Rabbit serum linear peptides) / Binding of a rabbit serum to looped/cyclic peptides of protein N of SARS-CoV Urbani (Rabbit serum looped peptides): unit not given here

AALVFLILCFTIKRK
0.6: Binding of serum 2 to linear peptides of protein X4 of SARS-CoV Urbani [1] | Binding of serum 37 to looped/cyclic peptides of protein X4 of SARS-CoV Urbani [1] | Binding of Control serum LUMC to looped peptides [2] | Rabbit serum looped peptides [3]
0.4: Binding of serum SARS-green to looped/cyclic peptides of protein X4 of SARS-CoV Urbani [1]
0.5: Binding of serum 1b to looped/cyclic peptides of protein X4 of SARS-CoV Urbani [1] | Binding of serum London to looped/cyclic peptides of protein X4 of SARS-CoV Urbani [1] | Binding of serum SARS-yellow to looped/cyclic peptides of protein X4 of SARS-CoV Urbani [1]
0.7: Binding of serum 1a to linear peptides of protein X4 of SARS-CoV Urbani [1] | Binding of serum 2 to looped/cyclic peptides of protein X4 of SARS-CoV Urbani [1] | Binding of serum 6 to looped/cyclic peptides of protein X4 of SARS-CoV Urbani [1] | Binding of serum 62 to looped/cyclic peptides of protein X4 of SARS-CoV Urbani [1] | Binding of serum SARS-green to linear peptides of protein X4 of SARS-CoV Urbani [1] | Binding of serum SARS-yellow to linear peptides of protein X4 of SARS-CoV Urbani [1] | Binding of Control serum LUMC to linear peptides [2]
0.8: Binding of serum 1a to looped/cyclic peptides of protein X4 of SARS-CoV Urbani [1] | Binding of serum 1b to linear peptides of protein X4 of SARS-CoV Urbani [1] | Binding of serum 6 to linear peptides of protein X4 of SARS-CoV Urbani [1] | Binding of serum 37 to linear peptides of protein X4 of SARS-CoV Urbani [1] | Binding of serum 62 to linear peptides of protein X4 of SARS-CoV Urbani [1] | Binding of serum London to linear peptides of protein X4 of SARS-CoV Urbani [1] | Binding of Control Serum Blood-Bank to Looped peptides [2] | Rabbit serum linear peptides [3]
0.9: Binding of Control serum Blood-bank to linear peptides [2]

AAVYRINWVTGGIAI
0.7: Binding of serum 1b to linear peptides of protein M of SARS-CoV Urbani [1] | Binding of serum 2 to linear peptides of protein M of SARS-CoV Urbani [1] | Binding of serum 37 to looped/cyclic peptides of protein M of SARS-CoV Urbani [1] | Binding of serum SARS-yellow to looped/cyclic peptides of protein M of SARS-CoV Urbani [1]
0.3: Binding of serum SARS-yellow to linear peptides of protein M of SARS-CoV Urbani [1]
0.9: Binding of serum 1a to linear peptides of protein M of SARS-CoV Urbani [1]
0.2: Binding of serum London to looped/cyclic peptides of protein M of SARS-CoV Urbani [1]
1.0: Binding of Control serum LUMC to linear peptides of the protein M of SARS-CoV Urbani [2]
0.0: Binding of serum SARS-green to looped/cyclic peptides of protein M of SARS-CoV Urbani [1]
0.6: Binding of serum 1a to looped/cyclic peptides of protein M of SARS-CoV Urbani [1] | Binding of serum 2 to looped/cyclic peptides of protein M of SARS-CoV Urbani [1] | Binding of serum 37 to linear peptides of protein M of SARS-CoV Urbani [1] | Binding of serum SARS-green to linear peptides of protein M of SARS-CoV Urbani [1]
0.8: Binding of Control Serum Blood-Bank to Looped peptides of the protein M of SARS-CoV Urbani [2] | Binding of Control serum Blood-bank to linear peptides of the protein M of SARS-CoV Urbani [2]
0.4: Binding of serum 1b to looped/cyclic peptides of protein M of SARS-CoV Urbani [1] | Binding of serum 62 to looped/cyclic peptides of protein M of SARS-CoV Urbani [1] | Binding of serum London to linear peptides of protein M of SARS-CoV Urbani [1] | Rabbit serum linear peptides [3] | Rabbit serum looped peptides [3]
0.5: Binding of serum 6 to linear peptides of protein M of SARS-CoV Urbani [1] | Binding of serum 6 to looped/cyclic peptides of protein M of SARS-CoV Urbani [1] | Binding of serum 62 to linear peptides of protein M of SARS-CoV Urbani [1] | Binding of Control serum LUMC to looped peptides of the protein M of SARS-CoV Urbani [2]

AAYNRYRIGNYKLNT
0.9: Binding of Control serum Blood-bank to linear peptides of the protein M of SARS-CoV Urbani [2]
1.3: Binding of serum 6 to looped/cyclic peptides of protein M of SARS-CoV Urbani [1]
0.2: Binding of serum SARS-yellow to linear peptides of protein M of SARS-CoV Urbani [1]
0.8: Binding of serum 2 to looped/cyclic peptides of protein M of SARS-CoV Urbani [1] | Binding of serum 6 to linear peptides of protein M of SARS-CoV Urbani [1] | Binding of Control Serum Blood-Bank to Looped peptides of the protein M of SARS-CoV Urbani [2] | Binding of Control serum LUMC to linear peptides of the protein M of SARS-CoV Urbani [2]
0.7: Binding of serum 1a to linear peptides of protein M of SARS-CoV Urbani [1] | Binding of serum 1a to looped/cyclic peptides of protein M of SARS-CoV Urbani [1] | Binding of serum 2 to linear peptides of protein M of SARS-CoV Urbani [1] | Binding of serum 62 to looped/cyclic peptides of protein M of SARS-CoV Urbani [1] | Binding of serum SARS-yellow to looped/cyclic peptides of protein M of SARS-CoV Urbani [1] | Binding of Control serum LUMC to looped peptides of the protein M of SARS-CoV Urbani [2]
0.6: Binding of serum 37 to linear peptides of protein M of SARS-CoV Urbani [1] | Rabbit serum looped peptides [3]
0.5: Binding of serum 1b to linear peptides of protein M of SARS-CoV Urbani [1] | Binding of serum 1b to looped/cyclic peptides of protein M of SARS-CoV Urbani [1] | Binding of serum 37 to looped/cyclic peptides of protein M of SARS-CoV Urbani [1] | Binding of serum 62 to linear peptides of protein M of SARS-CoV Urbani [1] | Binding of serum London to looped/cyclic peptides of protein M of SARS-CoV Urbani [1] | Binding of serum SARS-green to linear peptides of protein M of SARS-CoV Urbani [1]
0.3: Binding of serum SARS-green to looped/cyclic peptides of protein M of SARS-CoV Urbani [1]
0.4: Binding of serum London to linear peptides of protein M of SARS-CoV Urbani [1] | Rabbit serum linear peptides [3]

ACADGTRHTYQLRAR
recognized: Recognition of the peptide by the rabbit serum [3]
0.7: Binding of serum 1a to linear peptides of protein X4 of SARS-CoV Urbani [1] | Binding of serum 1a to looped/cyclic peptides of protein X4 of SARS-CoV Urbani [1] | Binding of serum 37 to linear peptides of protein X4 of SARS-CoV Urbani [1] | Binding of serum 37 to looped/cyclic peptides of protein X4 of SARS-CoV Urbani [1] | Binding of serum London to linear peptides of protein X4 of SARS-CoV Urbani [1] | Binding of serum SARS-green to linear peptides of protein X4 of SARS-CoV Urbani [1]
0.5: Binding of serum 2 to linear peptides of protein X4 of SARS-CoV Urbani [1] | Binding of serum SARS-green to looped/cyclic peptides of protein X4 of SARS-CoV Urbani [1] | Binding of serum SARS-yellow to linear peptides of protein X4 of SARS-CoV Urbani [1] | Binding of serum SARS-yellow to looped/cyclic peptides of protein X4 of SARS-CoV Urbani [1] | Binding of Control Serum Blood-Bank to Looped peptides [2] | Binding of Control serum LUMC to looped peptides [2]
0.8: Binding of serum 62 to linear peptides of protein X4 of SARS-CoV Urbani [1]
0.3: Binding of serum 1b to looped/cyclic peptides of protein X4 of SARS-CoV Urbani [1] | Binding of serum London to looped/cyclic peptides of protein X4 of SARS-CoV Urbani [1]
0.6: Binding of serum 1b to linear peptides of protein X4 of SARS-CoV Urbani [1] | Binding of serum 2 to looped/cyclic peptides of protein X4 of SARS-CoV Urbani [1] | Binding of serum 6 to linear peptides of protein X4 of SARS-CoV Urbani [1] | Binding of serum 6 to looped/cyclic peptides of protein X4 of SARS-CoV Urbani [1] | Binding of serum 62 to looped/cyclic peptides of protein X4 of SARS-CoV Urbani [1] | Binding of Control serum Blood-bank to linear peptides [2] | Binding of Control serum LUMC to linear peptides [2]
